Measurements published in US11723908B2, “Quinazoline derivatives as antitumor agents” (SUZHOU ZANRONG PHARMA LIMITED, priority 2018, dated 2023).
Read-outs that look alike come from different tables or passages of the source.

Key:
hERG channel = hERG channel (Homo sapiens (Human), UniProt Q12809); assay: hERG inhibition, manual patch clamp in HEK 293 cells; type: cell-based; settings: for IC50: HEK 293 cell line stably expressing hERG channel, manual patch clamp; for hERG liability: conclusion from Table 3
hERG channel, sequence (Q12809 whole entry): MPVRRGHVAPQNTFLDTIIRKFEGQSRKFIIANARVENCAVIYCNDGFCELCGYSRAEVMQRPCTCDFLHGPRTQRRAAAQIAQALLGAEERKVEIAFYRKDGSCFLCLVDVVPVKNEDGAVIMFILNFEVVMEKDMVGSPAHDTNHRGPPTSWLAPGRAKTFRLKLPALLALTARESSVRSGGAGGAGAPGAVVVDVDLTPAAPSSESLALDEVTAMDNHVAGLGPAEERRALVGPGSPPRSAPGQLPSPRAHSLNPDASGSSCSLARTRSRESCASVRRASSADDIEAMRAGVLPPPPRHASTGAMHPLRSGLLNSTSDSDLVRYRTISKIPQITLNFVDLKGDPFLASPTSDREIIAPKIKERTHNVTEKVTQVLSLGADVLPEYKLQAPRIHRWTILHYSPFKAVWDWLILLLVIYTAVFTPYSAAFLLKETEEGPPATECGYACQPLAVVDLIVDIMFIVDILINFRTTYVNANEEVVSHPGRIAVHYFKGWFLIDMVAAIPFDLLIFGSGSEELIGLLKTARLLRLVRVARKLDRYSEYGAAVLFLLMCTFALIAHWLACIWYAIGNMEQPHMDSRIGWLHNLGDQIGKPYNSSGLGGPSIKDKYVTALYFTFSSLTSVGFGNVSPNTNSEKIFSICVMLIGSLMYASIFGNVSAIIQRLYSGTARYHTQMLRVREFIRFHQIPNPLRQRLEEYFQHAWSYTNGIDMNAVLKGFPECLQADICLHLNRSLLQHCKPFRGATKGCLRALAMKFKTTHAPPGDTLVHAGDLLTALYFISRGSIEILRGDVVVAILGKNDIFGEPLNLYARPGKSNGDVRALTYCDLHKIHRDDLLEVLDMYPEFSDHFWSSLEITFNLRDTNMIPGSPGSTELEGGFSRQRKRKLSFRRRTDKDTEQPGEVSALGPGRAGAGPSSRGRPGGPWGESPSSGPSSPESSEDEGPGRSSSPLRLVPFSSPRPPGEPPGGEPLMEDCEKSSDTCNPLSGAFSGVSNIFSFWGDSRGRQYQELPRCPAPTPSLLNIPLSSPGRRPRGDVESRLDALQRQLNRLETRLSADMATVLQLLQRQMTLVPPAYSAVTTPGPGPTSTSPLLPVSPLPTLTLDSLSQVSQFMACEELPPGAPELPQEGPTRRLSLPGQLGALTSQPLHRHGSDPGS
Procedure: Assay f): hERG Inhibition Inhibition of hERG channel was conducted in HEK 293 cell line stably expressing hERG channel by manual patch clamp.

wt-EGFR = wt-EGFR (Homo sapiens (Human), UniProt P00533); assay: NCI H838 cellular assay (wt-EGFR inhibition), phospho-EGFR ELISA; type: cell-based
wt-EGFR, sequence (P00533 25-1210): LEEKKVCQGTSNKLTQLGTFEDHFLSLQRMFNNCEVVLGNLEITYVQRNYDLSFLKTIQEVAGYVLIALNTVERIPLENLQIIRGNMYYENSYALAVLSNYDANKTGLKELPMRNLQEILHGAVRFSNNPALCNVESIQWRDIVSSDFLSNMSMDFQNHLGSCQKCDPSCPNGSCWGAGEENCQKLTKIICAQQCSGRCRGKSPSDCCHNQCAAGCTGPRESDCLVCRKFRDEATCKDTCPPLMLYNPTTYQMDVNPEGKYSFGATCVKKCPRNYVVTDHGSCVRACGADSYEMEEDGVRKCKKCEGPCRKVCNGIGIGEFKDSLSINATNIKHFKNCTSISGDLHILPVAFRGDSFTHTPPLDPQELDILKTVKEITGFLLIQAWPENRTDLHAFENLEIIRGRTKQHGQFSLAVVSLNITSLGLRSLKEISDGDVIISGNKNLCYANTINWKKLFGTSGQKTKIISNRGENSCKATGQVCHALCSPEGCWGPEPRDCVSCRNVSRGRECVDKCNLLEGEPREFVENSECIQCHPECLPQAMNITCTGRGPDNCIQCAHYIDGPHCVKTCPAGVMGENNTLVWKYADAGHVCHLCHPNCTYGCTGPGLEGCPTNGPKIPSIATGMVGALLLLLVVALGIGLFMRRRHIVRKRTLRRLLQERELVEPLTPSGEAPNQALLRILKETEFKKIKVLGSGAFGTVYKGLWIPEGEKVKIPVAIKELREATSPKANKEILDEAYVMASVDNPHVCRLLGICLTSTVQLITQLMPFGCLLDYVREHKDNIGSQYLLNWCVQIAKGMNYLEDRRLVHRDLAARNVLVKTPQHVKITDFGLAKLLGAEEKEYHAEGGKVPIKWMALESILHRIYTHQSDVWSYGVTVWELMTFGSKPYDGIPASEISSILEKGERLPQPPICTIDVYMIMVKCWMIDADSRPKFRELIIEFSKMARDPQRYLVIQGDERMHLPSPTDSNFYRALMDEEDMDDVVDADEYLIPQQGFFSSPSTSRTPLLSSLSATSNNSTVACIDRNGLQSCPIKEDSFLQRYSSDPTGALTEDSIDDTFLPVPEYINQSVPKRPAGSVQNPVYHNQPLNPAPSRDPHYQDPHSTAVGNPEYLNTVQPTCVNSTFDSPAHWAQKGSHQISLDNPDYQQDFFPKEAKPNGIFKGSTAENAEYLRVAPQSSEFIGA
Procedure: Assay b) NCI H838 Cellular Assay (Wt-EGFR Inhibition) Inhibition of phosphor wt-EGFR was determined by enzyme-linked immunosorbent assay (ELISA) in NCI H838 cells (ATCC, catalog number CRL-5844). Human Phospho-EGFR DuoSet IC ELISA kit was purchased from R&D systems (catalog number DYC1095). Day 1: When the cells reach 70-90% confluence, cells were trypsinized and re-suspended. 5000 cells per well were seeded to a 384-well plate. The plate was incubated at 37° C. with 5% CO2 for 24 hours. Day 2: Cell culture medium was replaced with 40 μL FBS-Free RPMI1640. After 2 hours of starvation, the 384-well plate was dosed with 40 nL of compounds by Echo from source plate and the 384-well plate was incubated at 37° C. with 5% CO2 for 2 hours. After 2 hours of incubation with compounds, EGF (final concentration at 100 ng/ml) was added to the plate which was incubated at 37° C. with 5% CO2 for 5-10 minutes. Medium was discarded from the plate and 30 μl/well lysis buffer was added to the plate which was incubated at 4° C. for 10 minutes. The cell lysates can be stored at −80° C. in cell plates but must be thawed at room temperature for at least 30 minutes prior to use and continuing the assay. ELISA plate was coated by diluting capture antibody to 4 μg/ml with PBS, and 25 μl/well was dispensed to 384 well UltraCruz® ELISA Plate, which was incubated at 4° C. overnight. Day 3: After the plates were washed three times with 100 μl/well of wash buffer, the plates were blocked by adding 75 μl of Block Buffer to each well and incubated at room temperature for 3 hours. After the plates were washed three times with 100 μl/well of wash buffer, 20 μl cell lysate was transferred to the blocked ELISA plate which was incubated for 2 hours at room temperature. After the plates were washed three times with 100 μl/well of wash buffer, 25 μl/well detection antibody (dilute 1 in 900 in assay buffer) was added the plate which was incubated for 2 hours, protected from light. After washed three times, 25 μl/well TMB substrate was added to the ELISA plate which was incubated for about 10-15 min, protected from light before addition of 25 μl/well stop solution. Absorbance was read at 450 nm and 570 nm within 30 minutes.

[1] = Mouse SOA study for brain penetration; type: in vivo; settings: for brain penetration in vivo: mouse SOA study, conclusion from Table 3; for Mouse Kpu, u: male balb/c mice, oral 10 mg/kg, AUC 0-7 hr brain/plasma, unbound
Procedure: Assay e) Mouse SOA Study for Brain Penetration
Six non-fasted male balb/c mice (6-8 weeks, 20-25 g) were orally administered at 10 mg/kg, using a suspension formulation of 1% methylcellulose (MC) in deionized water. Brain and blood samples were collected at 0.25, 0.5, 1, 2, 4, 7 hours after dose. Plasma was obtained by centrifuging the blood samples for 5 min at 4000 g and 4° C. Brain tissue was homogenized following addition of four times the volume of phosphate-buffered saline (pH 7.4). Quantification of the compound in plasma and brain was undertaken by LC-MS/MS. Area under the curve (AUC) was determined from 0 to 7 hours in the brain tissue and plasma.
Total brain to plasma concentration ratio Kp was determined using the equation: Brain Kp=AUC0-7 hr brain/AUC0-7 hr plasma
Unbound brain to plasma ratio was determined using the equation: Brain Kp,uu=Kp*fu,brain/fu,plasma
Unbound fraction (fu, plasma) and unbound fraction (fu, brain) were obtained from in vitro equilibrium dialysis by using plasma and brain homogenate, respectively.

P-glycoprotein (Pgp) = P-glycoprotein (Pgp) (Homo sapiens (Human), UniProt P08183); assay: MDCK-MDR1 Pgp assessment; type: in vitro ADME; settings: for Pgp substrate status: conclusion from Table 3; for efflux ratio at 2 h, 1 μM: dog, MDCK-MDR1 cells, 37° C. for 2 hours, read-out: PgpER
Procedure: Assay c): MDCK-MDR1 Pgp Assessment
Efflux transport mediated by P-glycoprotein (Pgp) was assessed by MDCK-MDR1 cells. The final concentrations of test compounds and control compound were at 1 μM. The multi-well insert plate was incubated at 37° C. for 2 hours.

HER2 = HER2 (Homo sapiens (Human), UniProt P04626); assay: BT474 cellular assay (HER2 inhibition), phospho-HER2 ELISA; type: cell-based; settings: inhibition of phosphor HER2, BT474 cells, 2 hours compound incubation
HER2, sequence (P04626 23-1255): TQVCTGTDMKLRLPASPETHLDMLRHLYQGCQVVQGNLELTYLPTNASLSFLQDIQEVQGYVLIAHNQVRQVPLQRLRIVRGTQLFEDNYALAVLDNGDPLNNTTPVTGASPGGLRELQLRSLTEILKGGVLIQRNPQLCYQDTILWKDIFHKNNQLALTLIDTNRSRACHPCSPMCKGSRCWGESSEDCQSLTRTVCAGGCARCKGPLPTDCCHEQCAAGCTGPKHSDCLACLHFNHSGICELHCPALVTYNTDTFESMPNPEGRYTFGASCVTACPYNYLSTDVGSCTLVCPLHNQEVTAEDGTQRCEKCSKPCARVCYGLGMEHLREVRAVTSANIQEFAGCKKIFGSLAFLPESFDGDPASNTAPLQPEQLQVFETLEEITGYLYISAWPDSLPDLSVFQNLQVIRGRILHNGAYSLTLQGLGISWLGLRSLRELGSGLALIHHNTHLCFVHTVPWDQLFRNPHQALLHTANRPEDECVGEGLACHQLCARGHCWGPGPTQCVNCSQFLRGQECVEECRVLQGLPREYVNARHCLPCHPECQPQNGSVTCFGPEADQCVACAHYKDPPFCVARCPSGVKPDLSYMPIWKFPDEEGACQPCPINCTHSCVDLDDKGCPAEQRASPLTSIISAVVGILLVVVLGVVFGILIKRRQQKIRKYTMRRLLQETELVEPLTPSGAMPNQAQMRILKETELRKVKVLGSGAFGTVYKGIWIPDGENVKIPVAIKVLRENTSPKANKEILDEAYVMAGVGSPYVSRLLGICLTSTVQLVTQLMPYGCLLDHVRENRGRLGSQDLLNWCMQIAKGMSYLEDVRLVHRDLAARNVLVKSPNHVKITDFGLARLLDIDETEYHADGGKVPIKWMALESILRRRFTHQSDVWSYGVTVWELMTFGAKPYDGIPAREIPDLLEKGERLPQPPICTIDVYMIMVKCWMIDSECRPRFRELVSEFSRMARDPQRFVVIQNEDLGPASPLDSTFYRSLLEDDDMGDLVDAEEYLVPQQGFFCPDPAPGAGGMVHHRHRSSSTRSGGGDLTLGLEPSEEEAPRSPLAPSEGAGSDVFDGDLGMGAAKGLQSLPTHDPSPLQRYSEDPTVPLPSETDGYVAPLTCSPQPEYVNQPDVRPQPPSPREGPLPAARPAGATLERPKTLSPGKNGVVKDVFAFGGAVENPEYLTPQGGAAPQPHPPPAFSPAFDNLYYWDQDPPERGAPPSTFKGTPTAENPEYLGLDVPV
Procedure: Assay a) BT474 Cellular Assay (HER2 Inhibition) Inhibition of phosphor HER2 was determined by enzyme-linked immunosorbent assay (ELISA) in BT474 cells. BT474 cell line was purchased from [NT] number HTB-20). Human Phospho-ErbB2 ELISA kit was purchased from R&D systems (catalog number DYC1768). Day 1: When the cells reach 70-90% confluence, cells were trypsinized and re-suspended. 5000 cells per well were seeded to a 384-well plate. The plate was incubated at 37° C. with 5% CO2 for 24 hours. ELISA plate was coated with 2 μg/ml capture antibody, which was incubated at 4° C. overnight. Day 2: 25 nl compounds was dosed by Echo from source plate and the 384-well plate was incubated at 37° C. for 2 hours. 30 μl lysis buffer was added to each well and the 384-well plate was shaken softly at 4° C. for 30 minutes. The ELISA plate was washed, blocked and incubated at room temperature for 1-2 hours. The blocked ELISA plate was washed and 20 μl cell lysate was transferred from the 384-well plate to the ELISA plate, which was incubated overnight at 4° C. Day 3: The ELISA plate was washed 3 times. 25 μl/well detection antibody was added (diluted 1 by 2000 in 1% BSA in PBS). After 2 hours of incubation with detection antibody, the ELISA plate was washed 3 times, 25 μl/well TMB substrate was added and incubated for 10-15 minutes before stop solution was added. Absorbance at 450 nm and 570 nm was read within 30 minutes after adding the stop solution. […] The IC50 results are provided in Table 1 for some exemplary compounds.

BCRP = BCRP (Homo sapiens (Human), UniProt Q9UNQ0); assay: Caco-2 BCRP assessment; type: in vitro ADME; settings: for BCRP ER: Caco-2 cells, 1 μM, efflux ratio -/+ novobiocin 30 μM, >2 = BCRP substrate
BCRP, sequence (Q9UNQ0 whole entry): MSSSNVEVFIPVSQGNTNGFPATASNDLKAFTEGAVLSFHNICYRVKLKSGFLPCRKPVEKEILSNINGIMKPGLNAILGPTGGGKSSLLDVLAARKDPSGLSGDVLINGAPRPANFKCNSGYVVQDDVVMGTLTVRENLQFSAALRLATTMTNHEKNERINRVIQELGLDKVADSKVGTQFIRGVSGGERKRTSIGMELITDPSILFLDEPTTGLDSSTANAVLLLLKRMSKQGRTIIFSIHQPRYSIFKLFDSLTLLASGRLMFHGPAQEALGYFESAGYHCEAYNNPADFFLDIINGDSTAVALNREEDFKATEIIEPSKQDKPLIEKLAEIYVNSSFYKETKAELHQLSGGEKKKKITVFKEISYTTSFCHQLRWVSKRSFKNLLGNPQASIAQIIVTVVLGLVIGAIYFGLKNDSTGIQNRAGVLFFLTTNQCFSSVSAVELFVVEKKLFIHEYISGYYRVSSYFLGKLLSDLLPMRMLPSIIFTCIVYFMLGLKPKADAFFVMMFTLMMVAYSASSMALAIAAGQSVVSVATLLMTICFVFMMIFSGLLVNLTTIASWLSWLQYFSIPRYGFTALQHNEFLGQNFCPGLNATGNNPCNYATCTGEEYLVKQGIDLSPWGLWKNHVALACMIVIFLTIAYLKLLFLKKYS
Procedure: Assay d): Caco-2 BCRP Assessment
Caco-2 cells were used to study efflux transport mediated by BCRP. Rate of drug transport by BCRP was determined in the presence and absence of novobiocin, a strong inhibitor of BCRP, which was added to both apical and basolateral compartment sat a final concentration of 30 μM. The final concentrations of test compounds and control compound were at 1 μM. The multi-well insert plate was incubated at 37° C. for 2 hours. Efflux ratio (−inhibitor/+inhibitor)>2 was considered to be a BCRP substrate.

[2] = inhibition of phosphor wt-EGFR, NCI H838 cells, EGF 100 ng/ml

SMILES	IC50 (hERG channel) [µM]	brain penetration in vivo [1]	Pgp substrate status (P-glycoprotein (Pgp))	efflux ratio at 2 h, 1 μM (P-glycoprotein (Pgp))	IC50 (HER2) [µM]	BCRP ER (BCRP)	IC50 (wt-EGFR; [2]) [µM]	also measured
COc1ccc2ncnc(Nc3ccc(Oc4cc5ncnn5cn4)c(C)c3)c2c1O[C@@H]1CCN(C)CC1(F)F [Example 31, (R)—N-(4-([1,2,4]triazolo[1,5-c]pyrimidin-7-yloxy)-3-methylphenyl)-5-((3,3-difluoro-1-methylpiperidin-4-yl)oxy)-6-methoxyquinazolin-4-amine]	18	brain penetrable	not Pgp or BCRP substrates	1.3	0.0095	0.68	–	hERG liability (hERG channel): do not show hERG liability; IC50 (wt-EGFR): 12 µM; Kp ([1]; male, balb/c, mouse, brain, po, 10 mg/kg, read-out: Mouse Kpu, u): 0.26; BCRP substrate status (BCRP; conclusion from Table 3): not Pgp or BCRP substrates
COc1ccc2ncnc(Nc3ccc(Oc4cc5ncnn5cn4)c(C)c3)c2c1N1C[C@@H](N(C)C)[C@@H](F)C1 [Example 39, N-(4-([1,2,4]triazolo[1,5-c]pyrimidin-7-yloxy)-3-methylphenyl)-5-((3R,4S)-3-(dimethylamino)-4-fluoropyrrolidin-1-yl)-6-methoxyquinazolin-4-amine]	–	–	–	–	0.094	–	> 10	–
Cc1cc(Nc2ncnc3ccc(NC4=NC(C)(C)CO4)cc23)ccc1Oc1ccn2ncnc2c1 [Reference compound 3, N4-(4-([1,2,4]triazolo[1,5-a]pyridin-7-yloxy)-3-methylphenyl)-N6-(4,4-dimethyl-4,5-dihydrooxazol-2-yl)quinazoline-4,6-diamine, reference compound]	> 10	not brain penetrable in vivo	strong Pgp substrates	23.8	–	2.1	–	Mouse Kpu, u [1]: too low to calculate
COc1ccc2ncnc(Nc3ccc(Oc4cc5ncnn5cn4)c(C)c3)c2c1N1CC[C@H](N(C)C)C1 [Example 3, (S)—N-(4-([1,2,4]triazolo[1,5-c]pyrimidin-7-yloxy)-3-methylphenyl)-5-(3-(dimethylamino)pyrrolidin-1-yl)-6-methoxyquinazolin-4-amine]	–	–	–	–	0.031	–	0.33	–
COc1ccc2ncnc(Nc3ccc(Oc4cc5ncnn5cn4)c(C)c3)c2c1N1C[C@@H](F)[C@H](N(C)C)C1 [Example 40, N-(4-([1,2,4]triazolo[1,5-c]pyrimidin-7-yloxy)-3-methylphenyl)-5-((3R,4R)-3-(dimethylamino)-4-fluoropyrrolidin-1-yl)-6-methoxyquinazolin-4-amine]	–	–	–	–	0.063	–	> 10	–
CCOc1cc2ncc(C#N)c(Nc3ccc(OCc4ccccn4)c(Cl)c3)c2cc1NC(=O)/C=C/CN(C)C [Reference compound 2, Neratinib, reference compound]	> 10	not brain penetrable in vivo	strong Pgp substrates	> 18.6	–	1.4	–	Mouse Kpu, u [1]: too low to calculate
CCOc1ccc2ncnc(Nc3ccc(Oc4cc5ncnn5cn4)c(C)c3)c2c1N1CC(N(C)C)C1 [Example 11, N-(4-([1,2,4]triazolo[1,5-c]pyrimidin-7-yloxy)-3-methylphenyl)-5-(3-(dimethylamino)azetidin-1-yl)-6-ethoxyquinazolin-4-amine]	–	–	–	–	0.013	–	6.7	–
CN1CCC(Oc2cccc3ncnc(Nc4ccc(NCc5ccccn5)c(Cl)c4)c23)CC1 [Reference compound 1, 2-chloro-N^4-(5-((1-methylpiperidin-4-yl)oxy)quinazolin-4-yl)-N^1-(pyridin-2-ylmethyl)benzene-1,4-diamine, reference compound]	< 2	–	–	0.57	–	1.1	–	hERG liability (hERG channel): strong hERG inhibitor
COc1ccc2ncnc(Nc3ccc(Oc4cc5ncnn5cn4)c(Cl)c3)c2c1O[C@H]1CCN(C)CC1(F)F [Example 34, (S)—N-(4-([1,2,4]triazolo[1,5-c]pyrimidin-7-yloxy)-3-chlorophenyl)-5-((3,3-difluoro-1-methylpiperidin-4-yl)oxy)-6-methoxyquinazolin-4-amine]	–	–	–	–	0.018	–	6.3	–
